# System: sensory panel
# Assay: Taste modifier properties in model systems (sensory panel of 15 persons, with/without noseclip)
# Format: in vivo, human
# Conditions: 100 ppm
# Description: The sensory properties of various compositions comprising a monoester derivative of glucose were tested in various model systems, outlined in Table 14 below. [table] FIGS. 12 to 18 report the sweetness modifier properties of each of the following compounds (tested at 100 ppm in the various mode systems described above): glucose-6-O-octanoate, glucose-6-O-acetate, glucose-6-O-hexanoate, glucose-6-O-decanoate, glucose-6-O-hexadecanoate, glucose-6-O-oleate and glucose-6-O-oleyl derivative. The sensory properties were evaluated by a sensory panel consisting of15 persons, where the properties were evaluated with the subjects wearing a noseclip (With NC), and without a noseclip (Without NC). The subjects evaluate the perceived intensities of different sensory attributes on a linear scale (“0” note intense to “10” very intense) for the corresponding model mixtures without and with the compound at 100ppm. The differences of perceived intensities between the model mixtures with and without the compound are represented for each attribute. A statistical data treatment (unilateral paired student test) is achieved on each attribute to conclude on a significant or not significant taste modulation effect of the compound.
# [1] = SG95-sour model system, with and without nose clip, significance 95%
# [2] = SG95, with nose clip, significance 95%
compound,measurement,setting,value
CC(=O)OC[C@@H](O)[C@@H](O)[C@H](O)[C@@H](O)C=O [glucose-6-O-acetate],Licorice taste modulation effect,SG95,slight masking effects
same,Sweet lingering modulation effect,SG95,slight masking effects
same,Bitterness modulation effect,model system not stated,slight bitterness masking effet
same,Sweet taste modulation effect,sucrose model mixture,slights enhancing sweetness effects
same,Taste modulation effects overall,tasted model systems,no significant modulation effects
CCCCCC(=O)OC[C@@H](O)[C@@H](O)[C@H](O)[C@@H](O)C=O [glucose-6-O-hexanoate],Licorice taste modulation effect,[1],significant licorice taste masking effect
same,Sour taste modulation effect,[1],significant sour enhancing effect
same,Sweet lingering modulation effect,[2],significant sweet and sweet lingering masking effects
same,Sweet taste modulation effect,[2],significant sweet and sweet lingering masking effects
same,Sweet taste modulation effect,"sweet and sour model system, with and without nose clip, significance 95%",significant sweet enhancing effect
glucose-6-O-oleyl derivative,Sweet lingering modulation effect,[2],significant sweet lingering masking effect
same,Flavor intensity modulation effect,"beverage grapefruit, significance 95%",significant flavor intensity masking effect
CCCCCCCC/C=C\CCCCCCCC(=O)OC[C@@H](O)[C@@H](O)[C@H](O)[C@@H](O)C=O [glucose-6-O-oleate],Licorice taste modulation effect,[1],significant licorice taste masking effect
same,Licorice taste modulation effect,"SG95 model system, with and without nose clip, at least 95%",significant licorice taste masking effect
same,Bitter taste modulation effect,"without nose clip, significance 95%",significant bitter enhancing effect
same,Sweet lingering modulation effect,"without nose clip, significance 95%, model system not stated",significant sweet lingering masking effect
CCCCCCCCCC(=O)OC[C@@H](O)[C@@H](O)[C@H](O)[C@@H](O)C=O [glucose-6-O-decanoate],Licorice taste modulation effect,"SG95-sour model system, without nose clip, significance 95%",significant licorice taste masking effect
same,Taste modulation effects,all the other model systems,no significant effects
CCCCCCCCCCCCCCCC(=O)OC[C@@H](O)[C@@H](O)[C@H](O)[C@@H](O)C=O [glucose-6-O-hexadecanoate],Sweet taste modulation effect,"SG95/sour model system, without nose clip, significance 95%",significant sweet masking effect
same,Round/thick/mouth coating modulation effect,"grapefruit beverage, significance 95%",significant round/thick/mouth coating enhancing effect
same,Bitter taste modulation effect,"with nose clip, significance 95%",significant bitter enhancing effect
